Test results as given in US20100099561A1, “HETEROBICYCLIC ALKYLTHIO-BRIDGED ISOXAZOLINES” (E.I. DU PONT DE NEMOURS AND COMPANY, priority 2008, published 2010).

Key:
Format in all cases: in vivo
[1] = test system: giant foxtail (Setaria faberii); test: Test B preemergence, giant foxtail; details: scale 0 to 100
Excerpt: (§1) Seeds of plant species selected from blackgrass (Alopecurus myosuroides), downy bromegrass (Bromus tectorum), green foxtail (Setaria viridis), Italian ryegrass (Lolium multiflorum), wheat (Triticum aestivum), wild oat (Avena fatua), catchweed bedstraw (Galium aparine), bermudagrass (Cynodon dactylon), Surinam grass (Brachiaria decumbens), cocklebur (Xanthium strumarium), corn (Zea mays), large crabgrass (Digitaria sanguinalis), woolly cupgrass (Eriochloa villosa), giant foxtail (Setaria faberii), goosegrass (Eleusine indica), johnsongrass (Sorghum halepense), kochia (Kochia scoparia), lambsquarters (Chenopodium album), morningglory (Ipomoea coccinea), nightshade (eastern black nightshade, Solanum ptycanthum), yellow nutsedge (Cyperus esculentus), pigweed (Amaranthus retroflexus), ragweed (common ragweed, Ambrosia elatior), soybean (Glycine max), sunflower (common oilseed sunflower, Helianthus annuus), Russian thistle (Salsola kali), and velvetleaf (Abutilon theophrasti) were planted into a blend of loam soil and sand and treated preemergence with test compounds formulated in a non-phytotoxic solvent mixture which included a surfactant. Treated plants and controls were maintained in a greenhouse for 13 to 15 days, after which time all species were compared to controls and visually evaluated. Plant response ratings, summarized in Table B, are based on a scale of 0 to 100 where 0 is no effect and 100 is complete control. A dash (-) response means no test result.

[2] = test system: wheat (Triticum aestivum); test: Test B preemergence, wheat; details: Preemergence, scale 0 to 100
Outline: (§2)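 Untreated controls served as reference for visual evaluation at 13 to 15 days. Seeds in a sand–loam blend had been treated preemergence with surfactant-containing non-phytotoxic formulation; scale 0 = no effect, 100 = complete control; dash indicates no result.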

rice (Oryza sativa) = test: Test B flooded paddy test, rice; details: Flood, scale 0 to 100
Outline: (§3)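 Step one: raise plants to 2 leaves. Step two: flood pots 3 cm over the soil and apply compound into the water, keeping this depth. Step three: after 13–15 greenhouse days, score visually versus controls, 0–100, where 100 means complete control.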

[3] = test system: johnsongrass (Sorghum halepense); test: Test B preemergence, johnsongrass; details: scale 0 to 100
Excerpt: as §1

[4] = test system: velvetleaf (Abutilon theophrasti); test: Test A postemergence, velvetleaf; details: 0 to 100 scale (0 no effect, 100 complete control)
Outline: (§4)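 Seeds planted in loam–sand blend; compounds in non-phytotoxic solvent with surfactant applied as directed preemergence soil spray, or postemergence to plants 2–10 cm tall at one- to two-leaf stage. After ~10 days in greenhouse, injury rated visually versus untreated controls on 0–100 scale (100 = complete control).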

[5] = test system: yellow nutsedge (Cyperus esculentus); test: Test B preemergence, yellow nutsedge; details: scale 0 to 100
Excerpt: as §1

[6] = test system: blackgrass (Alopecurus myosuroides); test: Test B preemergence, blackgrass; details: scale 0 to 100
Excerpt: as §1

[7] = test system: morningglory (Ipomoea spp.); test: Test A postemergence, morningglory; details: 0 to 100 scale (0 no effect, 100 complete control)
Outline: as §4

wild oat (Avena fatua) = test: Test B preemergence, wild oat; details: scale 0 to 100
Excerpt: as §1

[8] = test system: goosegrass (Eleusine indica); test: Test B preemergence, goosegrass; details: scale 0 to 100
Excerpt: as §1

[9] = test system: pigweed (Amaranthus retroflexus); test: Test A postemergence, pigweed; details: 0 to 100 scale (0 no effect, 100 complete control)
Outline: as §4

[10] = test system: pigweed (Amaranthus retroflexus); test: Test B preemergence, pigweed; details: scale 0 to 100
Excerpt: as §1

[11] = test system: morningglory (Ipomoea coccinea); test: Test B preemergence, morningglory; details: scale 0 to 100
Excerpt: as §1

[12] = test system: ragweed (common ragweed, Ambrosia elatior); test: Test B preemergence, ragweed; details: scale 0 to 100
Excerpt: as §1

[13] = test system: sunflower (common oilseed sunflower, Helianthus annuus); test: Test B preemergence, sunflower; details: Preemergence, scale 0 to 100
Outline: as §2

corn (Zea mays) = test: Test A postemergence, corn; details: 0 to 100 scale (0 no effect, 100 complete control)
Outline: as §4

[14] = test system: lambsquarters (Chenopodium album); test: Test B preemergence, lambsquarters; details: scale 0 to 100
Excerpt: as §1

[15] = test system: ducksalad (Heteranthera limosa); test: Test B flooded paddy test, ducksalad; details: Flood, scale 0 to 100
Outline: as §3

[16] = test system: wheat (Triticum aestivum); test: Test A postemergence, wheat; details: 0 to 100 scale (0 no effect, 100 complete control)
Outline: as §4

CC1(C)CC(S(=O)(=O)Cc2c(C(F)(F)F)nc3n(c2=O)CCC3)=NO1 [Compound 11, 3-[[(4,5-dihydro-5,5-dimethyl-3-isoxazolyl)sulfonyl]methyl]-7,8-dihydro-2-(trifluoromethyl)pyrrolo[1,2-α]pyrimidin-4(6H)-one]
Plant response rating, Foxtail, Giant ([1]; 16 g ai/ha): 0
Plant response rating, Foxtail, Giant ([1]; 31 g ai/ha): 40
Plant response rating, Foxtail, Giant ([1]; 62 g ai/ha): 95
Plant response rating, Foxtail, Giant ([1]; 125 g ai/ha): 100
Plant response rating, Wheat ([2]; 16 g ai/ha): 0
Plant response rating, Wheat ([2]; 31 g ai/ha): 0
Plant response rating, Wheat ([2]; 62 g ai/ha): 20
Plant response rating, Wheat ([2]; 125 g ai/ha): 50
Plant response rating, Rice (rice (Oryza sativa); 31 g ai/ha): 0
Plant response rating, Rice (rice (Oryza sativa); 62 g ai/ha): 0
Plant response rating, Rice (rice (Oryza sativa); 125 g ai/ha): 25
Plant response rating, Rice (rice (Oryza sativa); 250 g ai/ha): 25
Plant response rating, Johnsongrass ([3]; 16 g ai/ha): 0
Plant response rating, Johnsongrass ([3]; 31 g ai/ha): 60
Plant response rating, Johnsongrass ([3]; 62 g ai/ha): 65
Plant response rating, Johnsongrass ([3]; 125 g ai/ha): 90
Plant response rating, Velvetleaf ([4]; 125 g ai/ha): 50
Plant response rating, Velvetleaf ([4]; 500 g ai/ha): 80
Plant response rating, Nutsedge, Yellow ([5]; 16 g ai/ha): 0
Plant response rating, Nutsedge, Yellow ([5]; 31 g ai/ha): 0
Plant response rating, Nutsedge, Yellow ([5]; 62 g ai/ha): 0
Plant response rating, Nutsedge, Yellow ([5]; 125 g ai/ha): 0
Plant response rating, Blackgrass ([6]; 16 g ai/ha): 0
Plant response rating, Blackgrass ([6]; 31 g ai/ha): 70
Plant response rating, Blackgrass ([6]; 62 g ai/ha): 70
Plant response rating, Blackgrass ([6]; 125 g ai/ha): 100
Plant response rating, Morningglory ([7]; 125 g ai/ha): 10
Plant response rating, Morningglory ([7]; 500 g ai/ha): 60
Plant response rating, Oat, Wild (wild oat (Avena fatua); 16 g ai/ha): 0
Plant response rating, Oat, Wild (wild oat (Avena fatua); 31 g ai/ha): 10
Plant response rating, Oat, Wild (wild oat (Avena fatua); 62 g ai/ha): 20
Plant response rating, Oat, Wild (wild oat (Avena fatua); 125 g ai/ha): 65
Plant response rating, Goosegrass ([8]; 16 g ai/ha): 65
Plant response rating, Goosegrass ([8]; 31 g ai/ha): 90
Plant response rating, Goosegrass ([8]; 62 g ai/ha): 100
Plant response rating, Goosegrass ([8]; 125 g ai/ha): 100
Plant response rating, Pigweed ([9]; 125 g ai/ha): 30
Plant response rating, Pigweed ([9]; 500 g ai/ha): 70
Plant response rating, Pigweed ([10]; 16 g ai/ha): 0
Plant response rating, Pigweed ([10]; 31 g ai/ha): 0
Plant response rating, Pigweed ([10]; 62 g ai/ha): 100
Plant response rating, Pigweed ([10]; 125 g ai/ha): 100
Plant response rating, Morningglory ([11]; 16 g ai/ha): 0
Plant response rating, Morningglory ([11]; 31 g ai/ha): 65
Plant response rating, Morningglory ([11]; 62 g ai/ha): 80
Plant response rating, Morningglory ([11]; 125 g ai/ha): 95
Plant response rating, Ragweed ([12]; 16 g ai/ha): 0
Plant response rating, Ragweed ([12]; 31 g ai/ha): 40
Plant response rating, Ragweed ([12]; 62 g ai/ha): 50
Plant response rating, Ragweed ([12]; 125 g ai/ha): 55
Plant response rating, Sunflower ([13]; 16 g ai/ha): 0
Plant response rating, Sunflower ([13]; 31 g ai/ha): 0
Plant response rating, Sunflower ([13]; 62 g ai/ha): 0
Plant response rating, Sunflower ([13]; 125 g ai/ha): 20
Plant response rating, Corn (corn (Zea mays); 125 g ai/ha): 20
Plant response rating, Corn (corn (Zea mays); 500 g ai/ha): 50
Plant response rating, Lambsquarters ([14]; 16 g ai/ha): 0
Plant response rating, Lambsquarters ([14]; 31 g ai/ha): 0
Plant response rating, Lambsquarters ([14]; 62 g ai/ha): 0
Plant response rating, Lambsquarters ([14]; 125 g ai/ha): 100
Plant response rating, Ducksalad ([15]; 31 g ai/ha): 0
Plant response rating, Ducksalad ([15]; 62 g ai/ha): 0
Plant response rating, Ducksalad ([15]; 125 g ai/ha): 0
Plant response rating, Ducksalad ([15]; 250 g ai/ha): 35
Plant response rating, Wheat ([16]; 125 g ai/ha): 20
Plant response rating, Wheat ([16]; 500 g ai/ha): 60

CC1(C)CC(S(=O)(=O)Cc2c(C(F)(F)F)nc3ccsn3c2=O)=NO1 [Compound 16]
Plant response rating, Foxtail, Giant ([1]; 16 g ai/ha): 0
Plant response rating, Foxtail, Giant ([1]; 31 g ai/ha): 80
Plant response rating, Foxtail, Giant ([1]; 62 g ai/ha): 90
Plant response rating, Foxtail, Giant ([1]; 125 g ai/ha): 98
Plant response rating, Wheat ([2]; 16 g ai/ha): 0
Plant response rating, Wheat ([2]; 31 g ai/ha): 0
Plant response rating, Wheat ([2]; 62 g ai/ha): 0
Plant response rating, Wheat ([2]; 125 g ai/ha): 0
Plant response rating, Rice (rice (Oryza sativa); 62 g ai/ha): 0
Plant response rating, Rice (rice (Oryza sativa); 250 g ai/ha): 0
Plant response rating, Johnsongrass ([3]; 16 g ai/ha): 0
Plant response rating, Johnsongrass ([3]; 31 g ai/ha): 45
Plant response rating, Johnsongrass ([3]; 62 g ai/ha): 85
Plant response rating, Johnsongrass ([3]; 125 g ai/ha): 95
Plant response rating, Velvetleaf ([4]; 125 g ai/ha): 30
Plant response rating, Velvetleaf ([4]; 500 g ai/ha): 60
Plant response rating, Nutsedge, Yellow ([5]; 16 g ai/ha): 0
Plant response rating, Nutsedge, Yellow ([5]; 31 g ai/ha): 0
Plant response rating, Nutsedge, Yellow ([5]; 62 g ai/ha): 0
Plant response rating, Nutsedge, Yellow ([5]; 125 g ai/ha): 0
Plant response rating, Blackgrass ([6]; 16 g ai/ha): 10
Plant response rating, Blackgrass ([6]; 31 g ai/ha): 85
Plant response rating, Blackgrass ([6]; 62 g ai/ha): 90
Plant response rating, Blackgrass ([6]; 125 g ai/ha): 100
Plant response rating, Morningglory ([7]; 125 g ai/ha): 0
Plant response rating, Morningglory ([7]; 500 g ai/ha): 50
Plant response rating, Oat, Wild (wild oat (Avena fatua); 16 g ai/ha): 0
Plant response rating, Oat, Wild (wild oat (Avena fatua); 31 g ai/ha): 20
Plant response rating, Oat, Wild (wild oat (Avena fatua); 62 g ai/ha): 30
Plant response rating, Oat, Wild (wild oat (Avena fatua); 125 g ai/ha): 60
Plant response rating, Goosegrass ([8]; 16 g ai/ha): 85
Plant response rating, Goosegrass ([8]; 31 g ai/ha): 95
Plant response rating, Goosegrass ([8]; 62 g ai/ha): 100
Plant response rating, Goosegrass ([8]; 125 g ai/ha): 100
Plant response rating, Pigweed ([9]; 125 g ai/ha): 10
Plant response rating, Pigweed ([9]; 500 g ai/ha): 50
Plant response rating, Pigweed ([10]; 31 g ai/ha): 0
Plant response rating, Pigweed ([10]; 62 g ai/ha): 0
Plant response rating, Pigweed ([10]; 125 g ai/ha): 100
Plant response rating, Morningglory ([11]; 16 g ai/ha): 0
Plant response rating, Morningglory ([11]; 31 g ai/ha): 0
Plant response rating, Morningglory ([11]; 62 g ai/ha): 0
Plant response rating, Morningglory ([11]; 125 g ai/ha): 0
Plant response rating, Ragweed ([12]; 16 g ai/ha): 0
Plant response rating, Ragweed ([12]; 31 g ai/ha): 0
Plant response rating, Ragweed ([12]; 62 g ai/ha): 0
Plant response rating, Ragweed ([12]; 125 g ai/ha): 0
Plant response rating, Sunflower ([13]; 16 g ai/ha): 0
Plant response rating, Sunflower ([13]; 31 g ai/ha): 0
Plant response rating, Sunflower ([13]; 62 g ai/ha): 0
Plant response rating, Sunflower ([13]; 125 g ai/ha): 0
Plant response rating, Corn (corn (Zea mays); 125 g ai/ha): 0
Plant response rating, Corn (corn (Zea mays); 500 g ai/ha): 0
Plant response rating, Lambsquarters ([14]; 16 g ai/ha): 0
Plant response rating, Lambsquarters ([14]; 31 g ai/ha): 0
Plant response rating, Lambsquarters ([14]; 62 g ai/ha): 0
Plant response rating, Lambsquarters ([14]; 125 g ai/ha): 98
Plant response rating, Ducksalad ([15]; 62 g ai/ha): 40
Plant response rating, Ducksalad ([15]; 250 g ai/ha): 40
Plant response rating, Wheat ([16]; 125 g ai/ha): 0
Plant response rating, Wheat ([16]; 500 g ai/ha): 50
